In brackets after ≈: the same amount, converted by molar mass. Residues, ends and D or L forms follow the SMILES beside them. *: point of attachment. Biotin = O=C1N[C@H]2[C@H](CS[C@H]2CCCCC(=O)*)N1
Each molecule was assayed on Escherichia coli ATCC 25922 (assay: Antimicrobial assay (MIC), E. coli). Conditions: not given.
Type: cell-based
Procedure: Antimicrobial assay. Two bacterial strains (Escherichia coli ATCC 25922 and Enterococcus faecalis ATCC 29212) were inoculated on heart infusion agar with 5% sheep blood and incubated aerobically overnight at 37° C. From the pure cultures, suspensions were made in saline to a density of 0.5 McFarland. These suspensions were diluted ten-fold in Mueller Hinton II broth, resulting in a final inoculum of approximately 10^7 cfu/ml.
Standard 96-well microtiter trays were filled with 100 ill of two-fold dilutions of peptide in physiologic salt solution in each well, resulting in the following concentration range: 4000, 2000, 1000, 500, 250, 125, 62.25, 31.63, 15.82, 7.96 and 0 μg/ml. The trays in column 12 were filled with 200 μl MH II broth (negative control).
Columns 1-11 of the microtiter trays were filled with 100 μl of the final inoculum of the bacterial suspensions, thus diluting the concentrations of the peptide two fold, resulting in the following peptide concentration range in the wells: 2000, 1000, 500, 250, 125, 62.25, 31.63, 15.82, 7.96, 3.98 and 0 μg/ml. In rows B, C and D, 100 μl of the final inoculum of E. coli and, in rows E, F and G, 100 μl of the final inoculum of E. faecalis was pipetted. The final bacterial concentration was approximately 5×10^5 cfu/well. All trays were sealed and incubated overnight at 37° C. After incubation, the microtiter trays were inspected visually for bacterial growth and the absorbance of the cultures at 630 nm (A630) was determined with an ELISA-reader. […] The experiment was performed independently in triplicate. The test was repeated again in triplicate after two days with the final peptide concentration range in the wells: 5000, 2500, 1250, 625, 312.5, 156.25, 78.12, 39.06, 19.58, 9.79, 4.88, 2.44 and 1.22 μg/ml.

Molecule | Antibacterial activity (in words)
CC[C@H](C)[C@H](NC(=O)[C@H](CC(C)C)NC(=O)[C@H](CCCCN)NC(=O)CNC(=O)[C@H](CC(N)=O)NC(=O)CNC(=O)CCCC[C@@H]1SC[C@@H]2NC(=O)N[C@@H]21)C(=O)N[C@@H](CCCCN)C(=O)NCC(=O)N[C@@H](CCCNC(=N)N)C(=O)N[C@H](C(=O)N1CCC[C@H]1C(=O)N[C@H](C(=O)N[C@@H](CCCCN)C(=O)N[C@@H](Cc1ccccc1)C(=O)NCC(=O)N[C@@H](CCCCN)C(=O)N[C@@H](C)C(=O)N[C@@H](CC(=O)O)C(=O)N[C@@H](CS)C(=O)N[C@@H](CC(=O)O)C(=O)N[C@@H](CCCNC(=N)N)C(=O)N1CCC[C@H]1C(=O)N1CCC[C@H]1C(=O)N[C@@H](CCCCN)C(=O)N[C@@H](Cc1c[nH]cn1)C(=O)N[C@@H](CO)C(=O)N[C@@H](CCC(N)=O)C(=O)N[C@@H](CC(N)=O)C(=O)NCC(=O)N[C@@H](CCSC)C(=O)NCC(=O)N[C@@H](CCCCN)C(N)=O)[C@@H](C)CC)[C@@H](C)O [L3 loop 59-88] (Biotin-GNGKLIKGRTPIKFGKADCDRPPKHSQNGMGK-NH2) | no antibacterial activity

Same assay, conditions: overnight at 37° C.

Molecule | MIC (minimal inhibitory concentration needed to inhibit bacterial growth)
CC[C@H](C)[C@H](NC(=O)[C@H](CCCNC(=N)N)NC(=O)[C@H](CC(C)C)NC(=O)[C@H](CCC(N)=O)NC(=O)[C@H](CCCNC(=N)N)NC(=O)CNC(=O)[C@H](CC(C)C)NC(=O)[C@H](Cc1c[nH]c2ccccc12)NC(=O)[C@H](CO)NC(=O)[C@@H](NC(=O)[C@@H](NC(=O)[C@H](CCCNC(=N)N)NC(=O)[C@H](C)NC(=O)[C@H](C)NC(=O)CNC(=O)[C@H](CCC(N)=O)NC(=O)[C@H](CCCNC(=N)N)NC(=O)[C@H](C)NC(=O)[C@H](CC(N)=O)NC(=O)[C@H](CCC(=O)O)NC(=O)[C@@H](NC(=O)[C@@H](NC(=O)[C@H](CC(N)=O)NC(=O)[C@@H](NC(=O)[C@H](CCSC)NC(=O)CNC(=O)[C@H](CC(=O)O)NC(=O)[C@H](CC(C)C)NC(=O)[C@H](CC(C)C)NC(=O)[C@H](Cc1ccc(O)cc1)NC(=O)[C@H](CC(C)C)NC(=O)[C@H](C)NC(=O)[C@@H](NC(=O)[C@H](CC(=O)O)NC(=O)[C@H](CCC(N)=O)NC(=O)[C@H](CC(C)C)NC(=O)[C@H](CC(C)C)NC(=O)[C@H](CO)NC(=O)CNC(=O)CCCC[C@@H]1SC[C@@H]2NC(=O)N[C@@H]21)[C@@H](C)O)[C@@H](C)O)[C@@H](C)O)[C@@H](C)CC)C(C)C)[C@@H](C)O)C(=O)N[C@@H](C)C(N)=O [172-211] | >500 µg/mL
CC[C@H](C)[C@H](NC(=O)[C@H](CCCNC(=N)N)NC(=O)[C@H](CC(C)C)NC(=O)[C@H](CCC(N)=O)NC(=O)[C@H](CCCNC(=N)N)NC(=O)CNC(=O)[C@H](CC(C)C)NC(=O)[C@H](Cc1c[nH]c2ccccc12)NC(=O)[C@H](CO)NC(=O)[C@@H](NC(=O)[C@@H](NC(=O)[C@H](CCCNC(=N)N)NC(=O)[C@H](C)NC(=O)[C@H](C)NC(=O)CNC(=O)[C@H](CCC(N)=O)NC(=O)[C@H](CCCNC(=N)N)NC(=O)[C@H](C)NC(=O)[C@H](CC(N)=O)NC(=O)[C@H](CCC(=O)O)NC(=O)[C@@H](NC(=O)[C@@H](NC(=O)[C@H](CC(N)=O)NC(=O)[C@@H](NC(=O)[C@H](CCSC)NC(=O)CNC(=O)[C@H](CC(=O)O)NC(=O)[C@H](CC(C)C)NC(=O)[C@H](CC(C)C)NC(=O)[C@H](Cc1ccc(O)cc1)NC(=O)[C@H](CC(C)C)NC(=O)[C@H](C)NC(=O)[C@@H](NC(=O)[C@H](CC(=O)O)NC(=O)CCCC[C@@H]1SC[C@@H]2NC(=O)N[C@@H]21)[C@@H](C)O)[C@@H](C)O)[C@@H](C)O)[C@@H](C)CC)C(C)C)[C@@H](C)O)C(=O)N[C@@H](C)C(=O)NCC(=O)N[C@@H](CCCCN)C(=O)N[C@@H](CCCNC(=N)N)C(=O)N[C@@H](CC(C)C)C(=O)N[C@@H](CCC(=O)O)C(N)=O [177-216] | 224 µg/mL (≈ 47.8 µM)
CC[C@H](C)[C@H](NC(=O)[C@H](CC(C)C)NC(=O)[C@H](CCCCN)NC(=O)CNC(=O)[C@H](CC(N)=O)NC(=O)CNC(=O)CCCC[C@@H]1SC[C@@H]2NC(=O)N[C@@H]21)C(=O)N[C@@H](CCCCN)C(=O)NCC(=O)N[C@@H](CCCNC(=N)N)C(=O)N[C@H](C(=O)N1CCC[C@H]1C(=O)N[C@H](C(=O)N[C@@H](CCCCN)C(=O)N[C@@H](Cc1ccccc1)C(=O)NCC(=O)N[C@@H](CCCCN)C(=O)N[C@@H](C)C(=O)N[C@@H](CC(=O)O)C(=O)N[C@@H](CS)C(=O)N[C@@H](CC(=O)O)C(=O)N[C@@H](CCCNC(=N)N)C(=O)N1CCC[C@H]1C(=O)N1CCC[C@H]1C(=O)N[C@@H](CCCCN)C(=O)N[C@@H](Cc1c[nH]cn1)C(=O)N[C@@H](CO)C(=O)N[C@@H](CCC(N)=O)C(=O)N[C@@H](CC(N)=O)C(=O)NCC(=O)N[C@@H](CCSC)C(=O)NCC(=O)N[C@@H](CCCCN)C(N)=O)[C@@H](C)CC)[C@@H](C)O [L3 loop 59-88] (Biotin-GNGKLIKGRTPIKFGKADCDRPPKHSQNGMGK-NH2) | >500 µg/mL

The molecules below were run on live cells in suspension or subconfluent monolayers (assay: not given). Conditions: not given.
Type: cell-based

Molecule | Translocation activity (in words) | Concentration (translocation activity of transport peptides)
CC[C@H](C)[C@H](NC(=O)[C@H](CC(C)C)NC(=O)[C@H](CCCCN)NC(=O)CNC(=O)[C@H](CC(N)=O)NC(=O)CNC(=O)CCCC[C@@H]1SC[C@@H]2NC(=O)N[C@@H]21)C(=O)N[C@@H](CCCCN)C(=O)NCC(=O)N[C@@H](CCCNC(=N)N)C(=O)N[C@H](C(=O)N1CCC[C@H]1C(=O)N[C@H](C(=O)N[C@@H](CCCCN)C(=O)N[C@@H](Cc1ccccc1)C(=O)NCC(=O)N[C@@H](CCCCN)C(=O)N[C@@H](C)C(=O)N[C@@H](CC(=O)O)C(=O)N[C@@H](CS)C(=O)N[C@@H](CC(=O)O)C(=O)N[C@@H](CCCNC(=N)N)C(=O)N1CCC[C@H]1C(=O)N1CCC[C@H]1C(=O)N[C@@H](CCCCN)C(=O)N[C@@H](Cc1c[nH]cn1)C(=O)N[C@@H](CO)C(=O)N[C@@H](CCC(N)=O)C(=O)N[C@@H](CC(N)=O)C(=O)NCC(=O)N[C@@H](CCSC)C(=O)NCC(=O)N[C@@H](CCCCN)C(N)=O)[C@@H](C)CC)[C@@H](C)O [L3 loop 59-88] (Biotin-GNGKLIKGRTPIKFGKADCDRPPKHSQNGMGK-NH2) | showed translocation activity | 
Biotin-DRRRRGSRPSGAERRRRRAAAA-NH2 [RSG-1.2] |  | 0.1 µM
Biotin-DTRQARRNRRRRWRERQRAAAAR-NH2 [HIV-1 Rev] |  | 0.1 µM

Same assay, conditions: Table 10

Molecule | Concentration (translocation activity), mapping of restrictocin L3 loop
CC[C@H](C)[C@H](NC(=O)[C@H](CC(C)C)NC(=O)[C@H](CCCCN)NC(=O)CNC(=O)[C@H](CC(N)=O)NC(=O)CNC(=O)CCCC[C@@H]1SC[C@@H]2NC(=O)N[C@@H]21)C(=O)N[C@@H](CCCCN)C(=O)NCC(=O)N[C@@H](CCCNC(=N)N)C(=O)N[C@H](C(=O)N1CCC[C@H]1C(=O)N[C@H](C(=O)N[C@@H](CCCCN)C(=O)N[C@@H](Cc1ccccc1)C(=O)NCC(=O)N[C@@H](CCCCN)C(=O)N[C@@H](C)C(=O)N[C@@H](CC(=O)O)C(=O)N[C@@H](CS)C(=O)N[C@@H](CC(=O)O)C(=O)N[C@@H](CCCNC(=N)N)C(=O)N1CCC[C@H]1C(=O)N1CCC[C@H]1C(=O)N[C@@H](CCCCN)C(=O)N[C@@H](Cc1c[nH]cn1)C(=O)N[C@@H](CO)C(=O)N[C@@H](CCC(N)=O)C(=O)N[C@@H](CC(N)=O)C(=O)NCC(=O)N[C@@H](CCSC)C(=O)NCC(=O)N[C@@H](CCCCN)C(N)=O)[C@@H](C)CC)[C@@H](C)O [L3 loop 59-88] (Biotin-GNGKLIKGRTPIKFGKADCDRPPKHSQNGMGK-NH2) | 1.0 µM

These molecules were tested on guinea pig erythrocytes (assay: Hemolytic assay, guinea pig erythrocytes). Conditions: 1% v/v, one hour at 37° C.
Type: cell-based
Procedure: Hemolytic assay. Hemolytic activity of various peptide concentrations was determined by incubation with human, guinea pig or sheep erythrocyte suspensions (final erythrocyte concentration, 1% v/v) for one hour at 37° C. After cooling and centrifugation, the optical density of the supernatants were measured at 540 nm. Peptide concentrations causing 50% hemolysis (EC50) were derived from the dose-response curves.

Molecule | Hemolysis (peptide concentration causing 50% hemolysis)
CC[C@H](C)[C@H](NC(=O)[C@H](CCCNC(=N)N)NC(=O)[C@H](CC(C)C)NC(=O)[C@H](CCC(N)=O)NC(=O)[C@H](CCCNC(=N)N)NC(=O)CNC(=O)[C@H](CC(C)C)NC(=O)[C@H](Cc1c[nH]c2ccccc12)NC(=O)[C@H](CO)NC(=O)[C@@H](NC(=O)[C@@H](NC(=O)[C@H](CCCNC(=N)N)NC(=O)[C@H](C)NC(=O)[C@H](C)NC(=O)CNC(=O)[C@H](CCC(N)=O)NC(=O)[C@H](CCCNC(=N)N)NC(=O)[C@H](C)NC(=O)[C@H](CC(N)=O)NC(=O)[C@H](CCC(=O)O)NC(=O)[C@@H](NC(=O)[C@@H](NC(=O)[C@H](CC(N)=O)NC(=O)[C@@H](NC(=O)[C@H](CCSC)NC(=O)CNC(=O)[C@H](CC(=O)O)NC(=O)[C@H](CC(C)C)NC(=O)[C@H](CC(C)C)NC(=O)[C@H](Cc1ccc(O)cc1)NC(=O)[C@H](CC(C)C)NC(=O)[C@H](C)NC(=O)[C@@H](NC(=O)[C@H](CC(=O)O)NC(=O)[C@H](CCC(N)=O)NC(=O)[C@H](CC(C)C)NC(=O)[C@H](CC(C)C)NC(=O)[C@H](CO)NC(=O)CNC(=O)CCCC[C@@H]1SC[C@@H]2NC(=O)N[C@@H]21)[C@@H](C)O)[C@@H](C)O)[C@@H](C)O)[C@@H](C)CC)C(C)C)[C@@H](C)O)C(=O)N[C@@H](C)C(N)=O [172-211] | >0.33 mg/mL
CC[C@H](C)[C@H](NC(=O)[C@H](CCCNC(=N)N)NC(=O)[C@H](CC(C)C)NC(=O)[C@H](CCC(N)=O)NC(=O)[C@H](CCCNC(=N)N)NC(=O)CNC(=O)[C@H](CC(C)C)NC(=O)[C@H](Cc1c[nH]c2ccccc12)NC(=O)[C@H](CO)NC(=O)[C@@H](NC(=O)[C@@H](NC(=O)[C@H](CCCNC(=N)N)NC(=O)[C@H](C)NC(=O)[C@H](C)NC(=O)CNC(=O)[C@H](CCC(N)=O)NC(=O)[C@H](CCCNC(=N)N)NC(=O)[C@H](C)NC(=O)[C@H](CC(N)=O)NC(=O)[C@H](CCC(=O)O)NC(=O)[C@@H](NC(=O)[C@@H](NC(=O)[C@H](CC(N)=O)NC(=O)[C@@H](NC(=O)[C@H](CCSC)NC(=O)CNC(=O)[C@H](CC(=O)O)NC(=O)[C@H](CC(C)C)NC(=O)[C@H](CC(C)C)NC(=O)[C@H](Cc1ccc(O)cc1)NC(=O)[C@H](CC(C)C)NC(=O)[C@H](C)NC(=O)[C@@H](NC(=O)[C@H](CC(=O)O)NC(=O)CCCC[C@@H]1SC[C@@H]2NC(=O)N[C@@H]21)[C@@H](C)O)[C@@H](C)O)[C@@H](C)O)[C@@H](C)CC)C(C)C)[C@@H](C)O)C(=O)N[C@@H](C)C(=O)NCC(=O)N[C@@H](CCCCN)C(=O)N[C@@H](CCCNC(=N)N)C(=O)N[C@@H](CC(C)C)C(=O)N[C@@H](CCC(=O)O)C(N)=O [177-216] | 0.23 mg/mL
